Paper PMC11406361, “Several orphan solute carriers functionally identified as organic cation transporters: Substrates specificity compared with known cation transporters” (The Journal of Biological Chemistry, 2024)

biological target: SLC35G3 (Homo sapiens, UniProt Q8N808); assay: Uptake ratio screen, SLC35G3-overexpressing HEK293 over empty vector cells; assay type: cell-based; design: by amplifying the entire gene-of-interest within the HEK293 genome via a long-range PCR; settings: not given
Sequence (Q8N808 whole entry): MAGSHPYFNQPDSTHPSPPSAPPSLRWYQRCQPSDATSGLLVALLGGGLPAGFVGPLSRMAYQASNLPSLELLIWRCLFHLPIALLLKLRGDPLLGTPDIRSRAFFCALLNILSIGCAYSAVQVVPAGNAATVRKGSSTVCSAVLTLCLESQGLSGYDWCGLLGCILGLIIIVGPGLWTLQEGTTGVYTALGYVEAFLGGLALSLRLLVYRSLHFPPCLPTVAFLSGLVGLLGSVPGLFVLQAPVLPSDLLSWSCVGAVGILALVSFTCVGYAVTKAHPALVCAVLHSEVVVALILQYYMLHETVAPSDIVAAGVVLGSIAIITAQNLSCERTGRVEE

**Q.** With COc1cc(CCN)cc(OC)c1OC [Mescaline] as the compound, how does the “Uptake data for SLC35G3, mean value (fold-increase over empty vector control)” value read?
**A.** 1.34

**Q.** For CNC1(c2ccccc2Cl)CCCCC1=O (stereo not drawn) [Ketamine], which “Uptake data for SLC35G3, mean value (fold-increase over empty vector control)” value is on record?
**A.** 1.28

same assay, conditions: 2.5 μM substrate, 2 min, HEK293

**Q.** O=C(O[C@H]1CN2CCC1CC2)N1CCc2ccccc2[C@@H]1c1ccccc1 [Solifenacin] was tested. Which “Uptake data for SLC35G3, mean value (fold-increase over empty vector control)” value did it give?
**A.** 1.26

**Q.** For CC12CC3CC(C)(C1)CC(N)(C3)C2 [Memantine], which “Uptake data for SLC35G3, mean value (fold-increase over empty vector control)” value is on record?
**A.** 1.19

**Q.** Fc1ccc([C@@H]2CCNC[C@H]2COc2ccc3c(c2)OCO3)cc1 [Paroxetin] was tested. Which “Uptake data for SLC35G3, mean value (fold-increase over empty vector control)” value did it give?
**A.** 1.30

**Q.** Which “Uptake data for SLC35G3, mean value (fold-increase over empty vector control)” value does the source give for Cc1cccc(C)c1NC(=O)C1CCCCN1C (stereo not drawn) [Mepivacaine] here?
**A.** 2.30

**Q.** How did the “Uptake data for SLC35G3, mean value (fold-increase over empty vector control)” value turn out when NCCc1ccc(O)cc1 [Tyramine] was run?
**A.** 1.61

**Q.** For CN(C)CCCN1c2ccccc2CCc2ccccc21 [Imipramine], which “Uptake data for SLC35G3, mean value (fold-increase over empty vector control)” value is on record?
**A.** 1.40

**Q.** With N[C@@H]1C[C@H]1c1ccccc1 (racemic) [Tranylcypromine] as the compound, how does the “Uptake data for SLC35G3, mean value (fold-increase over empty vector control)” value read?
**A.** 2.56

**Q.** With O=C1c2cccc3c2[C@H](CCC3)CN1[C@@H]1CN2CCC1CC2 [Palonosetron] as the compound, how does the “Uptake data for SLC35G3, mean value (fold-increase over empty vector control)” value read?
**A.** 1.36

**Q.** Which “Uptake data for SLC35G3, mean value (fold-increase over empty vector control)” value does the source give for NCC1(CC(=O)O)CCCCC1 [Gabapentin] here?
**A.** 0.90

**Q.** How did the “Uptake data for SLC35G3, mean value (fold-increase over empty vector control)” value turn out when O=C(CCCN1CCC(O)(c2ccc(Cl)cc2)CC1)c1ccc(F)cc1 [Haloperidol] was run?
**A.** 1.47

**Q.** Which “Uptake data for SLC35G3, mean value (fold-increase over empty vector control)” value does the source give for COc1c(N2C[C@@H]3CCCN[C@@H]3C2)c(F)cc2c(=O)c(C(=O)O)cn(C3CC3)c12 [Moxifloxacin] here?
**A.** 1.34

**Q.** Which “Uptake data for SLC35G3, mean value (fold-increase over empty vector control)” value does the source give for C[C@@H](O)[C@H]1C(=O)N2C(C(=O)O)=C(S[C@@H]3CN[C@H](C(=O)N(C)C)C3)[C@H](C)[C@H]12 [Meropenem] here?
**A.** 1.27

**Q.** How did the “Uptake data for SLC35G3, mean value (fold-increase over empty vector control)” value turn out when COc1ccc2c3c1O[C@H]1C[C@@H](O)C=C[C@@]31CCN(C)C2 [Galantamine] was run?
**A.** 1.57

**Q.** How did the “Uptake data for SLC35G3, mean value (fold-increase over empty vector control)” value turn out when COc1ccc2c3c1O[C@H]1C(=O)CC[C@H]4[C@@H](C2)N(C)CC[C@]314 [Hydrocodone] was run?
**A.** 1.71

**Q.** N[C@@H]1CON=C1O [Cycloserine (D-), Cycloserine] was tested. Which “Uptake data for SLC35G3, mean value (fold-increase over empty vector control)” value did it give?
**A.** 0.93

**Q.** CC(C)NCC(O)COc1ccc(COCCOC(C)C)cc1 (stereo not drawn) [Bisoprolol] was tested. Which “Uptake data for SLC35G3, mean value (fold-increase over empty vector control)” value did it give?
**A.** 1.24

**Q.** Which “Uptake data for SLC35G3, mean value (fold-increase over empty vector control)” value does the source give for CNCC[C@@H](Oc1ccccc1C)c1ccccc1 [Atomoxetine] here?
**A.** 1.26

**Q.** For COCCc1ccc(OCC(O)CNC(C)C)cc1 (stereo not drawn) [Metoprolol], which “Uptake data for SLC35G3, mean value (fold-increase over empty vector control)” value is on record?
**A.** 1.52

**Q.** Which “Uptake data for SLC35G3, mean value (fold-increase over empty vector control)” value does the source give for CCOc1ccccc1OCCN[C@H](C)Cc1ccc(OC)c(S(N)(=O)=O)c1 [Tamsulosin] here?
**A.** 1.39
